Test results published in ChEMBL document CHEMBL5584236, “Development of novel bisphenol derivatives with a membrane-targeting mechanism as potent gram-positive antibacterial agents” (Eur J Med Chem, 2024).
Activity calls are given as the source filed them. The calls are words filed in the database; no cut-off is given here.

Key:
[1] = test system: Staphylococcus aureus; experiment: Antibacterial activity against Staphylococcus aureus ATCC29213 assessed as reduction in microbial growth incubated for 22 to 24 hrs by CLSI based broth microdilution method; format: functional; conditions: time 22-24 hrs
[2] = test system: Escherichia coli; experiment: Antibacterial activity against Escherichia coli ATCC25922 assessed as reduction in microbial growth incubated for 22 to 24 hrs by CLSI based broth microdilution method; format: functional; conditions: time 22-24 hrs
[3] = test system: Staphylococcus epidermidis; experiment: Antibacterial activity against Staphylococcus epidermidis ATCC12228 assessed as reduction in microbial growth incubated for 22 to 24 hrs by CLSI based broth microdilution method; format: functional; conditions: time 22-24 hrs
[4] = test system: Klebsiella pneumoniae; experiment: Antibacterial activity against Klebsiella pneumoniae ATCC10031 assessed as reduction in microbial growth incubated for 22 to 24 hrs by CLSI based broth microdilution method; format: functional; conditions: time 22-24 hrs
[5] = test system: Staphylococcus aureus; experiment: Bactericidal activity against methicillin-resistant Staphylococcus aureus NCTC10442 assessed as cell killing at 4 times of MIC measured with in 2 hrs by time kill assay relative to control; format: functional
[6] = test system: Staphylococcus aureus; experiment: Bactericidal activity against methicillin-resistant Staphylococcus aureus NCTC10442 assessed as cell killing at 8 times of MIC measured with in 1 hr by time kill assay relative to control; format: functional
[7] = test system: Staphylococcus aureus; experiment: Bactericidal activity against Staphylococcus aureus ATCC29213 assessed as log reduction in bacterial load at 8 times of MIC measured with in 0.5 hrs by time kill assay; format: functional
[8] = Cytotoxicity against HEK293 cells assessed reduction in cell viability incubated for 24 hrs by CCK-8 assay; format: toxicity, cell-based; conditions: human
[9] = Cytotoxicity against HEK293 cells assessed as viable cells at 100 ug/ml incubated for 24 hrs by CCK-8 assay relative to control; format: toxicity, cell-based; conditions: human, at 100 µg/mL, read-out: Activity
[10] = test system: Staphylococcus aureus; experiment: Induction of membrane permeabilization in Staphylococcus aureus ATCC29213 assessed as increase in fluorescence intensity measured upto 60 mins by SYTOX green assay; format: functional, organism-based
[11] = test system: Escherichia coli; experiment: Induction of outer membrane permeabilization in Escherichia coli ATCC25922 assessed as increase in fluorescence intensity measured upto 1 hr by NPN uptake assay; format: functional, organism-based
[12] = test system: Staphylococcus aureus; experiment: Disruption of cell membrane integrity in methicillin-resistant Staphylococcus aureus NCTC10442 assessed as increase in red fluorescence at 8 time of MIC measured after 15 mins by SYTO 9/PI staining based laser confocal microscopic analysis; format: functional, organism-based
[13] = test system: Staphylococcus aureus; experiment: Antibacterial activity against Staphylococcus aureus ATCC29213 assessed as reduction in bacterial growth incubated for 22 to 24 hrs in presence of NaCl by CLSI based broth microdilution method; format: functional; conditions: time 22-24 hrs
[14] = test system: Staphylococcus aureus; experiment: Antibacterial activity against Staphylococcus aureus ATCC29213 assessed as reduction in bacterial growth incubated for 22 to 24 hrs in presence of KCl by CLSI based broth microdilution method; format: functional; conditions: time 22-24 hrs
[15] = test system: Staphylococcus aureus; experiment: Antibacterial activity against Staphylococcus aureus ATCC29213 assessed as reduction in bacterial growth incubated for 22 to 24 hrs in presence of CaCl2 by CLSI based broth microdilution method; format: functional; conditions: time 22-24 hrs
[16] = test system: Staphylococcus aureus; experiment: Antibacterial activity against Staphylococcus aureus ATCC29213 assessed as reduction in bacterial growth incubated for 22 to 24 hrs in presence of ZnSO4.7H2O by CLSI based broth microdilution method; format: functional; conditions: time 22-24 hrs
[17] = test system: Staphylococcus aureus; experiment: Antibacterial activity against methicillin-resistant Staphylococcus aureus N315 assessed as reduction in bacterial growth incubated for 22 to 24 hrs in presence of KCl by CLSI based broth microdilution method; format: functional; conditions: time 22-24 hrs
[18] = test system: Staphylococcus aureus; experiment: Antibacterial activity against methicillin-resistant Staphylococcus aureus N315 assessed as reduction in bacterial growth incubated for 22 to 24 hrs in presence of MgCl2 by CLSI based broth microdilution method; format: functional; conditions: time 22-24 hrs
[19] = test system: Staphylococcus aureus; experiment: Antibacterial activity against methicillin-resistant Staphylococcus aureus NCTC10442 assessed as reduction in bacterial growth incubated for 22 to 24 hrs in presence of KCl by CLSI based broth microdilution method; format: functional; conditions: time 22-24 hrs
[20] = test system: Staphylococcus aureus; experiment: Antibacterial activity against methicillin-resistant Staphylococcus aureus NCTC10442 assessed as reduction in bacterial growth incubated for 22 to 24 hrs in presence of CaCl2 by CLSI based broth microdilution method; format: functional; conditions: time 22-24 hrs
[21] = test system: Staphylococcus aureus; experiment: Synergistic […] activity against methicillin-resistant Staphylococcus aureus NCTC10442 assessed as fractional inhibitory concentration index incubated for 22 to 24 hrs in presence of linezolid by CLSI based broth microdilution method; format: functional; conditions: time 22-24 hrs
[22] = test system: Staphylococcus aureus; experiment: Synergistic […] activity against Staphylococcus aureus ATCC29213 assessed as fractional inhibitory concentration index incubated for 22 to 24 hrs in presence of mupirocin by CLSI based broth microdilution method; format: functional; conditions: time 22-24 hrs
[23] = test system: Staphylococcus aureus; experiment: Synergistic […] activity against Staphylococcus aureus ATCC29213 assessed as fractional inhibitory concentration index incubated for 22 to 24 hrs in presence of teicoplanin by CLSI based broth microdilution method; format: functional; conditions: time 22-24 hrs
[24] = test system: Staphylococcus aureus; experiment: Synergistic […] activity against methicillin-resistant Staphylococcus aureus NCTC10442 assessed as fractional inhibitory concentration index incubated for 22 to 24 hrs in presence of mupirocin by CLSI based broth microdilution method; format: functional; conditions: time 22-24 hrs
[25] = test system: Klebsiella pneumoniae; experiment: Synergistic […] activity against Klebsiella pneumoniae ATCC10031 assessed as fractional inhibitory concentration index incubated for 22 to 24 hrs in presence of tobramycin by CLSI based broth microdilution method; format: functional; conditions: time 22-24 hrs
[26] = test system: Klebsiella pneumoniae; experiment: Synergistic […] activity against Klebsiella pneumoniae ATCC10031 assessed as fractional inhibitory concentration index incubated for 22 to 24 hrs in presence of meropenem by CLSI based broth microdilution method; format: functional; conditions: time 22-24 hrs
[27] = test system: Klebsiella pneumoniae; experiment: Synergistic […] activity against Klebsiella pneumoniae ATCC10031 assessed as fractional inhibitory concentration index incubated for 22 to 24 hrs in presence of amikacin by CLSI based broth microdilution method; format: functional; conditions: time 22-24 hrs
[28] = test system: Acinetobacter baumannii; experiment: Synergistic […] activity against Acinetobacter baumannii ATCC17978 assessed as fractional inhibitory concentration index incubated for 22 to 24 hrs in presence of levofloxacin by CLSI based broth microdilution method; format: functional; conditions: time 22-24 hrs
[29] = test system: Acinetobacter baumannii; experiment: Synergistic […] activity against Acinetobacter baumannii ATCC17978 assessed as fractional inhibitory concentration index incubated for 22 to 24 hrs in presence of gentamicin by CLSI based broth microdilution method; format: functional; conditions: time 22-24 hrs
[30] = test system: Acinetobacter baumannii; experiment: Synergistic […] activity against Acinetobacter baumannii ATCC17978 assessed as fractional inhibitory concentration index incubated for 22 to 24 hrs in presence of meropenem by CLSI based broth microdilution method; format: functional; conditions: time 22-24 hrs
[31] = Cytotoxicity against mouse NCTC clone 929 cells assessed as viable cells at 3.125 ug/ml incubated for 24 hrs by CCK-8 assay relative to control; format: toxicity, cell-based; conditions: NCTC clone 929 (L929) cells, at 3.125 µg/mL, read-out: Activity
[32] = Cytotoxicity against mouse NCTC clone 929 cells assessed as viable cells at 12.5 ug/ml incubated for 24 hrs by CCK-8 assay relative to control; format: toxicity, cell-based; conditions: NCTC clone 929 (L929) cells, at 12.5 µg/mL, read-out: Activity
[33] = Cytotoxicity against HEK293 cells assessed as viable cells at 3.125 ug/ml incubated for 24 hrs by CCK-8 assay relative to control; format: toxicity, cell-based; conditions: human, at 3.125 µg/mL, read-out: Activity
[34] = Cytotoxicity against HEK293 cells assessed as viable cells at 6.25 ug/ml incubated for 24 hrs by CCK-8 assay relative to control; format: toxicity, cell-based; conditions: human, at 6.25 µg/mL, read-out: Activity

COC(=O)[C@H](CCCNC(=N)N)NC(=O)[C@H](CCCNC(=N)N)NC(=O)COc1ccc(S(=O)(=O)c2ccc(OC/C=C(/C)CCC=C(C)C)cc2)cc1
MIC [1]: 1.56 µg/mL
MIC [2]: 6.25 µg/mL
MIC [3]: 1.56 µg/mL
MIC [4]: 6.25 µg/mL
Activity [5]: 99.99%
Activity [6]: 99.99%
log(activity) [7]: 3
CC50 at 24 h [8]: > 100 µg/mL
viability at 24 h, 100 ug/ml [9]: 79.4%
Activity [10]: Dose-Dependent Effect
Activity [11]: Dose-Dependent Effect
Activity [12]: Active
MIC [13]: 1.56 µg/mL
MIC [14]: 1.56 µg/mL
MIC [15]: 3.12 µg/mL
MIC [16]: 1.56 µg/mL
MIC [17]: 1.56 µg/mL
MIC [18]: 1.56 µg/mL
MIC [19]: 1.56 µg/mL
MIC [20]: 3.12 µg/mL
fractional inhibitory concentration index (FICI) [21]: 0.27
fractional inhibitory concentration index (FICI) [22]: 0.625
fractional inhibitory concentration index (FICI) [23]: 0.31
fractional inhibitory concentration index (FICI) [24]: 1
fractional inhibitory concentration index (FICI) [25]: 0.375
fractional inhibitory concentration index (FICI) [26]: 0.56
fractional inhibitory concentration index (FICI) [27]: 0.31
fractional inhibitory concentration index (FICI) [28]: 0.25
fractional inhibitory concentration index (FICI) [29]: 0.28
fractional inhibitory concentration index (FICI) [30]: 0.25
viability at 24 h, 3.125 ug/ml [31]: 92.6%
viability at 24 h, 12.5 ug/ml [32]: 88.9%
viability at 24 h, 3.125 ug/ml [33]: 102%
viability at 24 h, 6.25 ug/ml [34]: 96.1%
